From ChEMBL document CHEMBL1201862, “PubChem BioAssay data set” (2004)
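Five concentrations, 48 hours, 96-well plates. GI50 = concentration required for 50% inhibition of growth.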 Active and inactive are the calls of the source. No stated cut-off is given here; in the data, active = GI50 up to about 1.1 µM and inactive = higher. Starred links: 1 amine or outer side, 2 acyl side, 3 side chain; linkers in the order of their positions; H or OH if unused. Positions of bridges follow the written chain, without caps; N, C: chain ends. Non-standard residues stand in square brackets, D forms with d. Residues, ends and D or L forms follow the SMILES beside them. ξ: configuration not given here. X37 = CC[C@H](C)[C@@H](N[*:1])[C@@H](O)CC(=O)O[C@H](C(=O)[C@H](C)C(=O)[*:2])C(C)C; NMeY = CN[C@@H](Cc1ccc(O)cc1)C(=O)O; dNMeL = CN[C@H](CC(C)C)C(=O)O; ξΔPro = O=C(O)C1C=CCN1

Tests used:
Assay in all cases: NCI tumour cell line growth inhibition, 48 h
[1] = test system: 786-0
[2] = test system: A498
[3] = test system: CAKI-1
[4] = test system: COLO 205
[5] = test system: HL-60
[6] = test system: HOP-62
[7] = test system: HT-29
[8] = test system: LXFL 529
[9] = test system: NCI-H460
[10] = test system: SF-268
[11] = test system: SK-MEL-5
[12] = test system: SK-OV-3
[13] = test system: SN12C
[14] = test system: SNB-75
[15] = test system: TK-10
[16] = test system: DU-145
[17] = test system: Hs-578T
[18] = test system: MDA-MB-231
[19] = test system: T47D

| Compound | GI50 [1] | GI50 [2] | GI50 [3] | GI50 [4] | GI50 [5] | GI50 [6] | GI50 [7] | GI50 [8] | GI50 [9] | GI50 [10] | GI50 [11] | GI50 [12] | GI50 [13] | GI50 [14] | GI50 [15] | GI50 [16] | GI50 [17] | GI50 [18] | GI50 [19] |
| --- | --- | --- | --- | --- | --- | --- | --- | --- | --- | --- | --- | --- | --- | --- | --- | --- | --- | --- | --- |
| CCCCN(CCCC)C(=O)C(=O)C(C(=O)C(=O)OC)c1nc2ccccc2o1 (stereo not drawn) | > 100 µM (inactive) | > 100 µM (inactive) | > 100 µM (inactive) | > 100 µM (inactive) | 69.3 µM (inactive) | 74.5 µM (inactive) | > 100 µM (inactive) | > 100 µM (inactive) | > 100 µM (inactive) | > 100 µM (inactive) | 62.7 µM (inactive) | > 100 µM (inactive) | > 100 µM (inactive) | > 100 µM (inactive) | > 100 µM (inactive) | – | – | – | – |
| COC(=O)c1cc(O)ccc1O [METHYL 2,5-DIHYDROXYBENZOATE] | > 100 µM (inactive) | – | > 100 µM (inactive) | > 100 µM (inactive) | > 100 µM (inactive) | > 100 µM (inactive) | > 100 µM (inactive) | > 100 µM (inactive) | > 100 µM (inactive) | > 100 µM (inactive) | > 100 µM (inactive) | > 100 µM (inactive) | > 100 µM (inactive) | > 100 µM (inactive) | > 100 µM (inactive) | – | – | – | – |
| CN(C)N1C(=O)SCC(c2ccccc2)(c2ccccc2)C1=O | > 100 µM (inactive) | > 100 µM (inactive) | > 100 µM (inactive) | > 100 µM (inactive) | > 100 µM (inactive) | > 100 µM (inactive) | > 100 µM (inactive) | – | > 100 µM (inactive) | > 100 µM (inactive) | > 100 µM (inactive) | > 100 µM (inactive) | > 100 µM (inactive) | 60.1 µM (inactive) | > 100 µM (inactive) | > 100 µM (inactive) | > 100 µM (inactive) | > 100 µM (inactive) | > 100 µM (inactive) |
| COc1ccc(N2C(=O)CC(=O)N(C(=O)CCCCCCCCC(=O)N3C(=O)CC(=O)N(c4ccc(OC)cc4)C3=S)C2=S)cc1 | > 100 µM (inactive) | > 100 µM (inactive) | > 100 µM (inactive) | > 100 µM (inactive) | 95.9 µM (inactive) | > 100 µM (inactive) | > 100 µM (inactive) | – | > 100 µM (inactive) | > 100 µM (inactive) | 57.9 µM (inactive) | > 100 µM (inactive) | > 100 µM (inactive) | > 100 µM (inactive) | > 100 µM (inactive) | > 100 µM (inactive) | > 100 µM (inactive) | > 100 µM (inactive) | 97.9 µM (inactive) |
| O=C(Cn1ccc(=O)[nH]c1=O)Nc1ccc(C(=O)O)c(O)c1 | > 100 µM (inactive) | > 100 µM (inactive) | > 100 µM (inactive) | > 100 µM (inactive) | > 100 µM (inactive) | 26.2 µM (inactive) | > 100 µM (inactive) | – | > 100 µM (inactive) | > 100 µM (inactive) | > 100 µM (inactive) | < 0.01 µM (active) | > 100 µM (inactive) | > 100 µM (inactive) | > 100 µM (inactive) | > 100 µM (inactive) | > 100 µM (inactive) | > 100 µM (inactive) | > 100 µM (inactive) |
| CC[C@H](C)[C@H]1NC(=O)[C@@H](NC(=O)[C@@H](CC(C)C)N(C)C(=O)C2C=CCN2)[C@@H](C)OC(=O)[C@H](Cc2ccc(OC)cc2)N(C)C(=O)[C@@H]2CCCN2C(=O)[C@H](CC(C)C)NC(=O)[C@@H](C)C(=O)[C@H](C(C)C)OC(=O)C[C@@H]1O (stereo partly drawn) (H-[ξΔPro][dNMeL]T[X37]LP[NMeY](Me); ester 3-C) | < 0.005 µM (active) | 0.00594 µM (active) | 0.0107 µM (active) | < 0.005 µM (active) | 0.00703 µM (active) | < 0.005 µM (active) | < 0.005 µM (active) | – | < 0.005 µM (active) | < 0.005 µM (active) | < 0.005 µM (active) | < 0.005 µM (active) | < 0.005 µM (active) | < 0.005 µM (active) | < 0.005 µM (active) | < 0.005 µM (active) | < 0.005 µM (active) | < 0.005 µM (active) | < 0.005 µM (active) |
| CC1C(OC2O[C@@H]3O[C@@]4(C)CC[C@H]5[C@H](C)CC[C@@H](C2C)[C@@]35O4)O[C@@H]2O[C@@]3(C)CC[C@H]4[C@H](C)CC[C@@H]1[C@@]24O3 (stereo partly drawn) | > 50 µM (inactive) | > 50 µM (inactive) | > 50 µM (inactive) | > 50 µM (inactive) | > 50 µM (inactive) | > 50 µM (inactive) | > 50 µM (inactive) | – | > 50 µM (inactive) | > 50 µM (inactive) | > 50 µM (inactive) | > 50 µM (inactive) | > 50 µM (inactive) | > 50 µM (inactive) | > 50 µM (inactive) | > 50 µM (inactive) | > 50 µM (inactive) | > 50 µM (inactive) | > 50 µM (inactive) |
| Cc1c(CCOC=O)c(=O)[nH]c2nncn12 | > 100 µM (inactive) | > 100 µM (inactive) | > 10 µM (inactive) | > 100 µM (inactive) | > 100 µM (inactive) | > 100 µM (inactive) | > 100 µM (inactive) | – | > 100 µM (inactive) | > 100 µM (inactive) | > 100 µM (inactive) | > 100 µM (inactive) | > 100 µM (inactive) | > 100 µM (inactive) | > 100 µM (inactive) | > 100 µM (inactive) | > 100 µM (inactive) | > 100 µM (inactive) | > 100 µM (inactive) |
| COc1cccc(C=C2N=C(c3ccccc3)N(n3c(-c4ccccc4)nc4ccccc4c3=O)C2=O)c1 | 83.4 µM (inactive) | 67.9 µM (inactive) | 41.2 µM (inactive) | 54 µM (inactive) | 25.1 µM (inactive) | 85.1 µM (inactive) | 40.9 µM (inactive) | – | 35.2 µM (inactive) | 56.4 µM (inactive) | 34.8 µM (inactive) | > 100 µM (inactive) | 57.8 µM (inactive) | 44.4 µM (inactive) | > 100 µM (inactive) | 83.8 µM (inactive) | 48.2 µM (inactive) | 57.9 µM (inactive) | 26.5 µM (inactive) |
| CCCCCOC(=O)C(=O)Nc1[nH]nnc1C(N)=O | > 100 µM (inactive) | > 100 µM (inactive) | > 100 µM (inactive) | > 100 µM (inactive) | > 100 µM (inactive) | > 100 µM (inactive) | > 100 µM (inactive) | – | > 100 µM (inactive) | > 100 µM (inactive) | > 100 µM (inactive) | > 100 µM (inactive) | > 100 µM (inactive) | > 100 µM (inactive) | > 100 µM (inactive) | > 100 µM (inactive) | > 100 µM (inactive) | > 100 µM (inactive) | > 100 µM (inactive) |
| COc1ccc(C2c3cc4c(cc3OC(NNC(N)=O)C2C)OCO4)cc1 (stereo not drawn) | 5.26 µM (inactive) | 2.87 µM (inactive) | 6.71 µM (inactive) | 3.95 µM (inactive) | 2.2 µM (inactive) | 6.28 µM (inactive) | 3.3 µM (inactive) | – | 4.94 µM (inactive) | 11.2 µM (inactive) | 6.85 µM (inactive) | 5.26 µM (inactive) | 7.16 µM (inactive) | 6.22 µM (inactive) | 25.8 µM (inactive) | 22.3 µM (inactive) | 3.53 µM (inactive) | 11.7 µM (inactive) | 27.4 µM (inactive) |
| C=C(C)CC1(O[Si](C)(C)C)C(=O)C(OCC)=C1OCC (stereo not drawn) | > 100 µM (inactive) | > 100 µM (inactive) | > 100 µM (inactive) | > 100 µM (inactive) | > 100 µM (inactive) | > 100 µM (inactive) | > 100 µM (inactive) | – | > 100 µM (inactive) | > 100 µM (inactive) | > 100 µM (inactive) | > 100 µM (inactive) | > 100 µM (inactive) | > 100 µM (inactive) | > 100 µM (inactive) | > 100 µM (inactive) | > 100 µM (inactive) | > 100 µM (inactive) | > 100 µM (inactive) |
| NC(CSCc1ccccc1)C(=O)O (stereo not drawn) | > 100 µM (inactive) | > 100 µM (inactive) | > 100 µM (inactive) | > 100 µM (inactive) | > 100 µM (inactive) | > 100 µM (inactive) | > 100 µM (inactive) | – | > 100 µM (inactive) | > 100 µM (inactive) | > 100 µM (inactive) | > 100 µM (inactive) | > 100 µM (inactive) | > 100 µM (inactive) | > 100 µM (inactive) | > 100 µM (inactive) | > 100 µM (inactive) | > 100 µM (inactive) | > 100 µM (inactive) |
| O=C(Nc1ccc2nc(O)n[n+]([O-])c2c1)C(F)(F)F | > 100 µM (inactive) | > 100 µM (inactive) | > 100 µM (inactive) | > 100 µM (inactive) | > 100 µM (inactive) | > 100 µM (inactive) | > 100 µM (inactive) | – | > 100 µM (inactive) | > 100 µM (inactive) | > 100 µM (inactive) | > 100 µM (inactive) | > 100 µM (inactive) | > 100 µM (inactive) | > 100 µM (inactive) | > 100 µM (inactive) | > 100 µM (inactive) | > 100 µM (inactive) | > 100 µM (inactive) |
| O=S(=O)(CCCCl)SCCCCl | 17.4 µM (inactive) | > 55.6 µM (inactive) | > 57.1 µM (inactive) | 29 µM (inactive) | 9.91 µM (inactive) | > 87.5 µM (inactive) | 25.9 µM (inactive) | – | 39.4 µM (inactive) | 26.7 µM (inactive) | 30.7 µM (inactive) | > 83 µM (inactive) | 25.1 µM (inactive) | 33 µM (inactive) | 74.6 µM (inactive) | 63.8 µM (inactive) | 27.8 µM (inactive) | 29.9 µM (inactive) | 26.9 µM (inactive) |
